The source of these data is patent KR20210021686A, “비천연 아미노산-결합 단백질, 및 이를 코딩하는 유전자가 도입된 형질전환체” (priority 2019, dated 2021).

The target in the assay is T1, Escherichia coli leucine-binding protein (류신-결합 단백질, LBP), wild type (WT), SEQ ID NO: 46, YFP-LBP fusion sensor (Escherichia coli, UniProt P04816).
T1 construct: made in house; host or cells: E. coli C321.ΔA (co-transformed with pEvol-CouA-RS)
The assay is described as follows: FRET titration, dissociation constant (Table 1), WT LBP. The conditions noted are these: 50 mM NaH2PO4, 50 mM NaCl, pH 9.0.

T1 sequence (P04816 24-369): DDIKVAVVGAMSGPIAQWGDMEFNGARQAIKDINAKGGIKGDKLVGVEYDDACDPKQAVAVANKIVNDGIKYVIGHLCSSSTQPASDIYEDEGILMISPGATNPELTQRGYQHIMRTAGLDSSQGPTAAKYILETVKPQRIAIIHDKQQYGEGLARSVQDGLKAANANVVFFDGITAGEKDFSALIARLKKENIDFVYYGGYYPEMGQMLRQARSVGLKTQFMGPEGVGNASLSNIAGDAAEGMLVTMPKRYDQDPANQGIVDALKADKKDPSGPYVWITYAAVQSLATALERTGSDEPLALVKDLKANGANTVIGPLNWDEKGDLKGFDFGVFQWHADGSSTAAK

On to `CC(C)C[C@H](N)C(=O)O` [L-Leu, L-류신], for which the Kd was found to be 410 nM.

As usually defined, the Kd is the equilibrium constant for the complex coming apart. Read a high Kd as a looser complex.
